Results: ChEMBL document CHEMBL1150903, “Complement-inhibiting cucurbitacin glycosides from Picria fel-terrae” (J Nat Prod, 1998)
The source made the active and inactive calls. No cut-off for these calls is given here.

Assays:
Aspergillus niger = experiment: Antifungal activity against Aspergillus niger; assay type: functional
SF-295 = experiment: Growth inhibition of human SF295 cells; assay type: functional
Pseudomonas aeruginosa = experiment: Antibacterial activity against Pseudomonas aeruginosa; assay type: functional
[1] = Growth inhibition of human NCI60 cells; assay type: functional
[2] = Inhibition of human serum alternative complement system assessed as modulation of complement pathway by alternative hemolytic complement assay
[3] = Inhibition of human serum classical complement system assessed as modulation of complement pathway by classical hemolytic complement assay
Candida albicans = experiment: Antifungal activity against Candida albicans; assay type: functional
Human alphaherpesvirus 1 = experiment: Antiviral activity against HSV1 assessed as reduction factor of viral titer at 100 ug/ml; assay type: functional, organism-based
Trichophyton rubrum = experiment: Antifungal activity against Trichophyton rubrum; assay type: functional
Escherichia coli = experiment: Antibacterial activity against Escherichia coli; assay type: functional
Staphylococcus aureus = experiment: Antibacterial activity against Staphylococcus aureus; assay type: functional
Bacillus cereus = experiment: Antibacterial activity against Bacillus cereus; assay type: functional
[4] = Inhibition of human serum classical complement system assessed as modulation of complement pathway at 420 uM by classical hemolytic complement assay

Structure (SMILES)	MIC (Aspergillus niger) [µg/mL]	GI50 (SF-295) [µM]	MIC (Pseudomonas aeruginosa) [µg/mL]	GI50 [1] [µM]	TGI [1] [µM]	Activity [2]	IC50 [2] [µM]	Activity [3]	IC50 [3] [µM]	MIC (Candida albicans) [µg/mL]	Activity (Human alphaherpesvirus 1)	MIC (Trichophyton rubrum) [µg/mL]	MIC (Escherichia coli) [µg/mL]	MIC (Staphylococcus aureus) [µg/mL]	MIC (Bacillus cereus) [µg/mL]	inhibition [4] [%]
CC(C)C1=CC(=O)[C@](C)([C@H]2[C@H](O)C[C@@]3(C)[C@@H]4CC=C5[C@@H](CC[C@@H](O[C@@H]6OC[C@@H](O)[C@H](O)[C@H]6O[C@@H]6O[C@@H](C)[C@H](O)[C@@H](O)[C@H]6O)C5(C)C)[C@]4(C)C(=O)C[C@]23C)O1 [PICFELTARRACEMIN IA]	> 100	59	> 100	> 100	> 100	Dose-dependent effect	336	Dose-dependent effect	95	> 100	Active	> 100	> 100	> 100	> 100	
CC(C)C1=CC(=O)[C@](C)([C@H]2[C@H](O)C[C@@]3(C)[C@@H]4CC=C5[C@@H](CC[C@@H](O[C@@H]6O[C@H](CO)[C@@H](O)[C@H](O)[C@H]6O[C@@H]6O[C@@H](C)[C@H](O)[C@@H](O)[C@H]6O)C5(C)C)[C@]4(C)C(=O)C[C@]23C)O1 [PICFELTARRACEMIN IB]	> 100		> 100	> 100	> 100	Dose-dependent effect	68	Dose-dependent effect	> 420	> 100	Active	> 100	> 100	> 100	> 100	48
CC(C)C1=CC(=O)[C@](C)([C@H]2[C@H](O)C[C@@]3(C)[C@@H]4CC=C5[C@@H](CC[C@@H](O[C@@H]6OC[C@@H](O)[C@H](O)[C@H]6O)C5(C)C)[C@]4(C)C(=O)C[C@]23C)O1 [PICFELTARRACEMIN VI]	> 100		> 100			Dose-dependent effect	21	Dose-dependent effect	29	> 100	Active	> 100	> 100	> 100	> 100	
CC(C)C1=CC(=O)[C@](C)([C@H]2[C@H](O)C[C@@]3(C)[C@@H]4CC=C5[C@@H](CC[C@@H](O[C@@H]6OC[C@@H](O)[C@H](O[C@@H]7O[C@H](CO)[C@@H](O)[C@H](O)[C@H]7O[C@@H]7O[C@@H](C)[C@H](O)[C@@H](O)[C@H]7O)[C@H]6O)C5(C)C)[C@]4(C)C(=O)C[C@]23C)O1 [PICFELTARRACEMIN IV]	> 100		> 100			Dose-dependent effect	313	Dose-dependent effect	131	> 100	Active	> 100	> 100	> 100	> 100	
O=C(/C=C/c1ccc(O)c(O)c1)O[C@H](Cc1ccc(O)c(O)c1)C(=O)O [ROSMARINIC ACID]							408		81							
